Article PMC12281142, “A potent phenylalkylamine disrupts mycobacterial membrane bioenergetics and augments bactericidal activity of bedaquiline” (iScience, 2025)

What was measured:
Mtb H37Rv = conditions: drug sensitive and resistant strains of Mtb H37Rv; cited from earlier work
M. bovis BCG = format: cell-based, Mycobacterium bovis BCG

COc1ccc(CCN(C)CCCC(C#N)(c2ccc(OC)c(OC)c2)C(C)C)cc1OC (centres unmarked) [VP, verapamil, reference compound]
decrease in BDQ MIC caused by VP (Mtb H37Rv): 20 fold

CCCCCCCCC(C#N)(CCCN(C)CCc1ccc(OC)c(OC)c1)c1ccc(OC)c(OC)c1 (centres unmarked) [PhA2]
spontaneous mutation frequency (M. bovis BCG): < 10^−9 /CFU
